{"source": "patent US20050080570A1", "about": "“Predicting probabilities of achieving a desired minimum trough level for an anti-infective agent” (priority 2003, published 2005)", "key": {"[1]": {"details": "100% human serum; fourth study; cited from earlier work"}, "[2]": {"details": "average value across the studies"}}, "note": "Where two headings read alike, the source gives them in different places.", "data": [{"smiles": "O=C1Nc2ccc(Cl)cc2[C@@](C#CC2CC2)(C(F)(F)F)O1", "note": "[EFV, Efavirenz]", "values": [{"measurement": "Protein-binding correction factor, Average", "setting": "[2]", "result": 18.4}, {"measurement": "Protein-binding correction factor, 100% HS", "setting": "[1]", "result": 25.5}]}, {"smiles": "Cc1c(O)cccc1C(=O)N[C@@H](CSc1ccccc1)[C@H](O)CN1C[C@H]2CCCC[C@H]2C[C@H]1C(=O)NC(C)(C)C", "note": "[NFV, Nelfinavir]", "values": [{"measurement": "Protein-binding correction factor, Average", "setting": "[2]", "result": 46.1}, {"measurement": "Protein-binding correction factor, 100% HS", "setting": "[1]", "result": 90.6}]}, {"smiles": "Cc1ccnc2c1NC(=O)c1cccnc1N2C1CC1", "note": "[NVP, Nevirapine]", "values": [{"measurement": "Protein-binding correction factor, Average", "setting": "[2]", "result": 1.3}, {"measurement": "Protein-binding correction factor, 100% HS", "setting": "[1]", "result": 1.2}]}, {"smiles": "CC(C)(C)NC(=O)[C@@H]1C[C@@H]2CCCC[C@@H]2CN1C[C@@H](O)[C@H](Cc1ccccc1)NC(=O)[C@H](CC(N)=O)NC(=O)c1ccc2ccccc2n1", "note": "[SQV, Saquinavir]", "values": [{"measurement": "Protein-binding correction factor, Average", "setting": "human", "result": 23.4}]}]}
